Activity calls are given as the source filed them.
Assays:
[1] = biological target: Eukaryotic translation initiation factor 4E (Mus musculus, UniProt P63073); experiment: eIF4E–eIF4G protein interaction inhibitors, dose response, biochemical, TR-FRET (AID 855); assay type: functional;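 further: potency for disrupting eIF4E binding to eIF4GI seen as loss of FRET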
[2] = biological target: T1, Carboxy-terminal domain RNA polymerase II polypeptide A small phosphatase 1 (Homo sapiens, UniProt Q9GZU7); experiment: inhibitors of CTDSP1, concentration-response testing, biochemical assay, absorbance-based, actives from ultra-high-throughput screening (AID 540297); assay type: functional
T1 sequence (Q9GZU7 whole entry): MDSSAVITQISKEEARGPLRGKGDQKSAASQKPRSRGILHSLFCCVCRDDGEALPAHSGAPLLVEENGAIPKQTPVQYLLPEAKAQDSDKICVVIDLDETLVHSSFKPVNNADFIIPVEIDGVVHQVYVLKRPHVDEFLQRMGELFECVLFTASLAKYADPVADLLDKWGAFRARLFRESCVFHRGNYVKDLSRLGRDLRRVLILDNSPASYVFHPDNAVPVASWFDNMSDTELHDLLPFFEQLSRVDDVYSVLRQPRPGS

Coagulation factor XII = biological target: T2, Coagulation factor XII (Homo sapiens, UniProt P00748); assay type: functional;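 further: activated factor XIIa alpha cleaving a fluorogenic AMC peptide substrate; inhibitor potency from loss of enzyme activity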
T2 sequence (P00748 whole entry): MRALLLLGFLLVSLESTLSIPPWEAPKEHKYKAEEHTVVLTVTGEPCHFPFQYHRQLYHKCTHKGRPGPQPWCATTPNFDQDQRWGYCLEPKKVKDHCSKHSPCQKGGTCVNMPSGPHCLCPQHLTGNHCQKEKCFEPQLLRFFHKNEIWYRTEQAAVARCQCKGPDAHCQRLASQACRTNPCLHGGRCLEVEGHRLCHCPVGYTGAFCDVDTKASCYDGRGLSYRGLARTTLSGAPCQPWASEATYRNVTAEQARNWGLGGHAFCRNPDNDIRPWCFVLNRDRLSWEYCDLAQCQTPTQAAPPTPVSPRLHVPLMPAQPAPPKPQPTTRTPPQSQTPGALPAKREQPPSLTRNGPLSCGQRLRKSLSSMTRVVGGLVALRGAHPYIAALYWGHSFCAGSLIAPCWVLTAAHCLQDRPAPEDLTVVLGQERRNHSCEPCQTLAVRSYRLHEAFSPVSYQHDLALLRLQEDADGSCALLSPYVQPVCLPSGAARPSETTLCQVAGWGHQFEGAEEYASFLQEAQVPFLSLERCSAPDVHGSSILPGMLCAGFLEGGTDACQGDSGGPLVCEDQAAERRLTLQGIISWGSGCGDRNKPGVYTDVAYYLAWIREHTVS

Streptococcus = experiment: Group A Streptococcus viability loss, dose response, counter-screen for streptokinase expression inhibitor project, luminescence, BacTiterGlo (AID 1915); assay type: functional, organism-based;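 further: potency for reduction of bacterial viability or growth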
[3] = inhibitors of intracellular T. cruzi replication, confirmation, NIH3T3 host cells, beta-gal luminescence (AID 2044); assay type: functional, cell-based;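 further: intracellular parasites grown in NIH/3T3 mouse fibroblasts as host cells; luminescent beta-galactosidase reporter signal from transgenic T. cruzi replicating inside host cells; inhibitors lower the luminescence signal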
[4] = tested on: Streptococcus sp. 'group A'; experiment: growth inhibition of control SK(-) GAS strain, dose response, counter-screen for streptokinase expression inhibitor project, luminescence, kanamycin, BacTiterGlo, confirmation (AID 1900); assay type: functional, organism-based
[5] = cytotoxicity toward NIH3T3 fibroblasts, dose response, counter-screen, cell-based, ATP luminescence, mouse fibroblasts (AID 2010); assay type: functional;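 further: cells exposed to compound for about 90 hours before reading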
Streptokinase A = biological target: T3, Streptokinase A (Streptococcus pyogenes serotype M1, UniProt P10520); experiment: S. pyogenes streptokinase expression inhibitors, potency, dose response, plasminogen activation absorbance, OD405 (AID 1914); assay type: functional, Streptococcus pyogenes M1 GAS;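 further: secreted streptokinase activity via plasminogen activation per viability signal from cell pellet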
T3 sequence (P10520 whole entry): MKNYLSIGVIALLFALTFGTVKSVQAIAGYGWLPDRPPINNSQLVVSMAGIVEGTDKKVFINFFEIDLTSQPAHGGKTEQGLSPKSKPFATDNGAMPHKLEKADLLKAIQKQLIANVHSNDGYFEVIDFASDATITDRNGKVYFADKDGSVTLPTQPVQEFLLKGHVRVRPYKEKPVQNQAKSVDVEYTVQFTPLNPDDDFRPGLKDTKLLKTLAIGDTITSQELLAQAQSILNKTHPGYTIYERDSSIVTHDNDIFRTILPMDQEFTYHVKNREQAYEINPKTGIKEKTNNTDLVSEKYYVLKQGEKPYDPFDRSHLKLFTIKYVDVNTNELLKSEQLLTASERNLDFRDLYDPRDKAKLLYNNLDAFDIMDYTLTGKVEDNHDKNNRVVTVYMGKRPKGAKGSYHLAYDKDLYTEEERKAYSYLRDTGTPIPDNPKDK

[6] = A Cell Based Secondary Assay To Explore Cytotoxicity of Compounds that Sensitize Mycobacterium Tuberculosis to Beta-Lactam Antibiotics.; assay type: functional
HEK293 [7] = experiment: cells; assay type: functional, cell-based; settings: Homo sapiens
[8] = biological target: Nucleotide-binding oligomerization domain-containing protein 2 (Homo sapiens, UniProt Q9HC29); experiment: NOD2 signaling inhibitors, cell-based, luminescence, uHTS, HEK293 (AID 1566); assay type: functional
HEK293 [9] = experiment: NOD1 signaling inhibitors, primary screen, cell-based, luminescence, uHTS (AID 1578); assay type: functional; settings: Homo sapiens
HEK293 [10] = experiment: cells; assay type: functional, cell-based; settings: Homo sapiens; remark: listed apart in the source
HEK293 [11] = experiment: NOD2 signaling inhibitors in MDP-stimulated cells, cell-based, uHTS, luminescence (AID 2001); assay type: functional; settings: Homo sapiens
HEK293 [12] = experiment: cells; assay type: functional, cell-based; settings: Homo sapiens; remark: listed apart in the source
[13] = Luminescence Cell-Based Dose Retest to Confirm Inhibitors of Cancer Stem Cells. [Related pubchem assays (depositor defined):AID2717, AID2721]; assay type: functional; settings: Homo sapiens
Beta-galactosidase = Beta-galactosidase (Escherichia coli, UniProt Q8VNN2); experiment: beta-galactosidase enzyme inhibitors and activators, dose response, artefact control for CCR6 antagonist project, biochemical, E. coli enzyme, set 3 (AID 504712); assay type: functional
[14] = biological target: DNA dC->dU-editing enzyme APOBEC-3G (Homo sapiens, UniProt Q9HC16); experiment: Dose Response confirmation of small molecule APOBEC3G DNA Deaminase Inhibitors via a fluorescence-based single-stranded DNA deaminase assay. [Related pubchem assays (depositor defined):AID493012, AID493028]; assay type: functional
[15] = biological target: Heat shock protein HSP 90-alpha (Homo sapiens, UniProt P07900); assay type: functional, organism-based
[16] = A cytotoxicity screen of small molecule inhibitors of the PhoP region in Salmonella typhi identified in the primary screen. [Related pubchem assays: 1850, 1864, 1985 ]; assay type: functional
[17] = inhibitors of Vif binding to APOBEC3G peptide, primary screen, biochemical, TR-FRET, GST-Vif 1-94, biotin-A3G peptide, dose response retest (AID 1117319); assay type: functional;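 further: TR-FRET signal of purified GST-Vif binding a biotinylated A3G peptide; inhibitors lower the FRET signal by blocking Vif and A3G binding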
Troponin, cardiac muscle = Troponin, cardiac muscle (Homo sapiens, UniProt P19429+P45379+P63316); experiment: Fluorescence-based biochemical high throughput dose response assay for activators of the calcium sensitivity of cardiac Regulated Thin Filaments (RTF). [Related pubchem assays (depositor defined):AID493008, AID493018, AID504382, AID504383]; assay type: protein-complex assay

## CCOc1ccccc1NC(=O)N1CCC(NC(=O)c2cccc(C)c2)CC1
[1]
  IC50: 58 µM (inactive)
[2]
  IC50: 18.8 µM (active)

## Cc1ccc(-n2ncc3c(O)ncnc32)c(C)c1
Coagulation factor XII
  IC50: > 50 µM (inactive)

## O=[N+]([O-])c1ccc2c(c1)c1ccccc1n2CCO
Coagulation factor XII
  IC50: > 50 µM (inactive)

## CCOC(=O)c1sc(NC(=O)Nc2ccc(Cl)cc2)cc1C
Streptococcus
  EC50: 15.6 µM (active)
[3]
  EC50: 1.5 µM (active)
[4]
  EC50: 6.12 µM (active)
[5]
  EC50: > 60 µM (not active)
Streptokinase A
  EC50: 26.1 µM (inconclusive)
[6]
  CC50: 24.9 µM (active)

## Cc1ccc(C(C)C)c(OCc2ccc(-c3nnco3)cc2)c1
HEK293 [7]
  IC50: > 20 µM (inactive)
[8]
  EC50: 14.6 µM (active)
HEK293 [9]
  EC50: 13.2 µM (active)
HEK293 [10]
  IC50: > 20 µM (inactive)
HEK293 [11]
  IC50: > 20 µM (inactive)
HEK293 [12]
  IC50: 15.2 µM (active)

## CCOC(=O)/C=C/C(=O)Nc1cccc([N+](=O)[O-])c1
[13]
  AC50: 5.87 µM (active)
Beta-galactosidase
  IC50: > 66.6 µM (inactive)
[14]
  IC50: 11 µM (active)
[15]
  AC50: 3.97 µM (active)

## COC(=O)c1ccc(NCC(=O)Nc2cc(C)cc(C)c2)cc1
Coagulation factor XII
  IC50: > 50 µM (inactive)

## O=C(CSc1nc(-c2ccc(F)cc2)c[nH]1)NCc1ccco1
[16]
  EC50: > 50 µM (active)

## CCn1c(=N)n(CC(=O)c2ccc(OC)cc2)c2ccccc21
[16]
  EC50: > 50 µM (active)
[17]
  IC50: > 100 µM (active)

## CCN(CC)C(=S)SCC(=O)c1c(C)[nH]c2ccccc12
Troponin, cardiac muscle
  EC50: > 71.5 µM (inactive)

Reference: ChEMBL document CHEMBL1201862, “PubChem BioAssay data set” (2004)
